These results are taken from the Kinase Knowledgebase extract (Sharma et al. 2016).

Molecules are shown by their SMILES. Bounds are passed on as bounds.

The target in this assay is MAPK14 (human) (UniProt Q16539). As to the kind of experiment: Inhibition of MAPK14 Kinase Activity. To be noted: THP.1 monocytic.
MAPK14 (human), sequence (Q16539 whole entry, looked up): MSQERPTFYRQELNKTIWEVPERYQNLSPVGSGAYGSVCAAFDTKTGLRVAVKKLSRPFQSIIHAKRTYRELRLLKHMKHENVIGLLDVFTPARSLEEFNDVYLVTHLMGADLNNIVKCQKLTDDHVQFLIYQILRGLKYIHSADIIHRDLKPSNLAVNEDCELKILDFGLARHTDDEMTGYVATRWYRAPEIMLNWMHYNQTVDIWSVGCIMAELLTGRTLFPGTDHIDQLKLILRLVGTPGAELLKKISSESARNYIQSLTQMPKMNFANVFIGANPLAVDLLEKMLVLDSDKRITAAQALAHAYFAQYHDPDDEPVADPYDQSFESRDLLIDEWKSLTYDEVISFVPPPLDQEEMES
For the compound `O=c1c(Br)c(OCc2ccccc2)ccn1Cc1ccccc1C(F)(F)F`, the IC50 was > 100 µM.

On to `COC(=O)c1ccc(Cn2ccc(OCc3ccccc3)c(Br)c2=O)cc1`, for which the half-inhibitory concentration (IC50) was < 1 µM.

As for `Cc1cc(OCc2ccc(F)cc2F)c(Br)c(=O)n1-c1cccc(C(=O)N(C)CCO)c1`, the half-maximal inhibitory concentration (IC50) fell in the range of 1 to 25 µM.

Turning to `CNC(=O)c1ccc(OC)c(-n2c(C)cc(OCc3ccc(F)cc3F)c(Br)c2=O)c1`, the IC50 was < 1 µM.

Take `Cc1cc(OCc2ccc(F)cc2F)c(Br)c(=O)n1-c1cccc(C(=O)NCCCN)c1`: the IC50 was < 1 µM.
